Reference: PMC4848466, “Insights into the activation mechanism of class I HDAC complexes by inositol phosphates” (Nature Communications, 2016)
“Also recorded” adds a separate entry of the source. Each block holds one molecule with its values, some of them ahead of it. Non-standard residues stand in square brackets, D forms with d. Residues, ends and D or L forms follow the SMILES beside them. *: point of attachment. Asu = N[C@@H](CCCCCC(=O)O)C(=O)O; NHOH = ON*

Experiments:
[1] = molecular target: T1, HDAC3:SMRT complex (Homo sapiens, UniProt O15379+Q9Y618); assay: Activation of HDAC3:SMRT deacetylase activity by inositol phosphates (BOC-Lys-AMC assay); assay type: biochemical; settings: for Kd / HDAC3 activation relative to maximal Ins(1,4,5,6)P4-stimulated activity: BOC-Lys-AMC assay; for Kd: one-site binding fit of HDAC activity vs inositol phosphate concentration, read-out: Kdapp (apparent Kd from activation titration); for HDAC3 activation relative to maximal Ins(1,4,5,6)P4-stimulated activity: titration / maximal activation; for HDAC activity as percentage of maximal Ins(1,4,5,6)P4 activity: compound tested at 200 μM
T1 construct: Full-length HDAC3, and residues 350–480 of SMRT were cloned into pcDNA3 vectors; residues 350–480 of SMRT were cloned into pcDNA3 vectors; FLAG tag with TEV protease cleavage site (cleaved yes); made in house; host or cells: HEK293F cells (co-transfection, pcDNA3)
T1 sequence (O15379 whole entry, the tested form may be a part): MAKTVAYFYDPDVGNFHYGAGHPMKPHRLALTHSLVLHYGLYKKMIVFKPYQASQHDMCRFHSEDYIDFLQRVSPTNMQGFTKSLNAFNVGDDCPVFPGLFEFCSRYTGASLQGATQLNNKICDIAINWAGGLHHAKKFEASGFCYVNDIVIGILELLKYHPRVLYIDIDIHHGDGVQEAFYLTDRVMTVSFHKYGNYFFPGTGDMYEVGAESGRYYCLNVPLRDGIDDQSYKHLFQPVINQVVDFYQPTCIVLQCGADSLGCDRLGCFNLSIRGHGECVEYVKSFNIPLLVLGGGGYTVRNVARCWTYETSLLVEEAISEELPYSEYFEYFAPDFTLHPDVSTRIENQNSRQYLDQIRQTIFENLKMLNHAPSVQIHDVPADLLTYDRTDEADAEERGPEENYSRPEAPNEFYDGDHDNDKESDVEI
T1 sequence (Q9Y618 350-480): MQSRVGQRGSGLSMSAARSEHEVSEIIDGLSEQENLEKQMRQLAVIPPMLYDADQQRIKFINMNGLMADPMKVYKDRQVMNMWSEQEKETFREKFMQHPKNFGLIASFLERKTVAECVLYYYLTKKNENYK
Protocol: (§1) To understand the stereochemical basis underlying the activation of HDAC3 by inositol phosphates we investigated the ability of a range of inositol phosphates and derivatives to enhance the activity of HDAC3 in deacetylase assays. To achieve this we used an assay based on the complex of HDAC3 with an extended SMRT construct which is stable in the absence of inositol phosphate.
(§2) HDAC activity of the protein complex was measured using an HDAC assay with a BOC-Lys-AMC substrate. 50 nM HDAC3:SMRT or 50 nM HDAC1:MTA1 was incubated with 100 μM BOC-Lys-AMC substrate in a final volume of 50 μl buffer A (50 mM Tris pH 7.5, 50 mM NaCl, 5% Glycerol), in a black 96-well plate for 30 min at 37 °C.
(§3) To test the ability of inositol phosphates and derivatives to activate the complex, 50 nM HDAC3:SMRT (which had been stripped of its endogenous co-purified inositol phosphate) or 50 nM HDAC1:MTA1 was incubated with inositol phosphate or analogue for 30 min at 37 °C before the HDAC activity was measured. All measurements were performed in triplicate and data analysed using GraphPad Prism (version 6.0, GraphPad Software, Inc).

[2] = molecular target: T2, HDAC3:SMRT (Homo sapiens, UniProt O15379+Q9Y618); assay: Fluorescence anisotropy direct binding of 2-FAM-Ins(1,3,4,5,6)P5; settings: inhibitor bound at the active site
T2 sequence (O15379 whole entry): as the sequence (O15379 whole entry, the tested form may be a part) above
T2 sequence (Q9Y618 350-480): as the sequence (Q9Y618 350-480) above
Protocol: When required, assays were performed in the presence of HDAC inhibitor (20 mM final concentration). Plates were mixed by shaking for 1 s, and measurements taken using a Victor X5 plate reader (Perkin Elmer) at room temperature with an excitation wavelength of 480 nm and an emission wavelength of 535 nm. Experiments were performed in triplicate and data were analysed using GraphPad Prism (version 6.0), Kd values were calculated by nonlinear curve fitting using a one-site binding (hyperbola) model (Y=Bmax*X/(Kd+X).

[3] = molecular target: T3, HDAC1:MTA1 (Homo sapiens, UniProt Q13330+Q13547); assay: Inhibition of HDAC1:MTA1 by peptide-based inhibitor; assay type: biochemical
T3 construct: Full-length HDAC1 and residues 162–354 of MTA1 were cloned into pcDNA3 vectors; residues 162–354 of MTA1 were cloned into pcDNA3 vectors; FLAG tag with TEV protease cleavage site (cleaved yes); made in house; host or cells: HEK293F cells (co-transfection, pcDNA3)
T3 sequence (Q13547 whole entry, one chain of several, the tested form may be a part): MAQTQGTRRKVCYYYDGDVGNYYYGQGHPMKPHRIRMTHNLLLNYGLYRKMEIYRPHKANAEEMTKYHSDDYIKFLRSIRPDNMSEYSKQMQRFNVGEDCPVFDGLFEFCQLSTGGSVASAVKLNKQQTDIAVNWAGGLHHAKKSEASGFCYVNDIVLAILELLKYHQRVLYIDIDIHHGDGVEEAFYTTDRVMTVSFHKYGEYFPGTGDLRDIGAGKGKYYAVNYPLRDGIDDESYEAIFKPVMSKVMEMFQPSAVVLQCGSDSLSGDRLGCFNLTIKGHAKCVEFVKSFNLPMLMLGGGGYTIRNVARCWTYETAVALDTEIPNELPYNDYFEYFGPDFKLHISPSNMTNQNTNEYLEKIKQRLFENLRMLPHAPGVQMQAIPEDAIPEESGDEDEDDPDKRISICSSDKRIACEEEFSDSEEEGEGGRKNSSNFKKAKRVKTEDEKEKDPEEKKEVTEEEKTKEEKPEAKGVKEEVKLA

[4] = molecular target: T3, HDAC1:MTA1; assay: Michaelis-Menten enzyme kinetics on Caliper EZ Reader with H4K16ac peptide; assay type: biochemical; settings: H4 12–18K16ac peptide; in the presence of the inositol phosphate
Excerpt: (§4) To explore further the differences between the two complexes we established a more physiological, real-time kinetic assay using substrates based on the tails of histones H4 and H3. The peptides tested were; H4 12–18(K16ac), H3 23–29(K27ac) and H3 6–12(K9ac). […] HDAC3:SMRT is most catalytically active against H3 23–29(K27ac) (Supplementary Fig. 7), whereas HDAC1:MTA1 is most catalytically active against H4 12–18(K16ac) (Fig. 4d). In both cases an approximate 3-fold greater kcat is observed for the preferred versus non-preferred substrate, in the absence of inositol phosphate. […] The net effect of both inositol phosphates tested was between a two and fivefold increase in catalytic efficiency (kcat/Km) (Fig. 4c,d, Supplementary Fig. 7).
(§5) Michaelis–Menten kinetics were determined using a HDAC assay on the Caliper EZ Reader II system (Caliper Life Sciences, http://www.caliperls.com). To assess the effect of inositol phosphate, 20 nM HDAC3:SMRT or 80 nM HDAC1:MTA1 were pre-mixed with InsP6 before dilution and addition of fluorescein-labelled H4K16Ac substrate. Reactions were carried out in duplicate in 30 μl reaction volumes, performed at room temperature in 50 mM Tris pH 7.5, 50 mM NaCl, 5% glycerol. Data was analysed using GraphPad Prism (version 6.0).

[5] = molecular target: T4, HDAC3:SMRT complex (Homo sapiens, UniProt O15379); assay: Activation of HDAC3:SMRT deacetylase activity by inositol phosphates (BOC-Lys-AMC assay); assay type: biochemical; settings: BOC-Lys-AMC assay; one-site binding fit of HDAC activity vs inositol phosphate concentration; read-out: Kdapp (apparent Kd from activation titration)
T4 construct: Full-length HDAC3, and residues 350–480 of SMRT were cloned into pcDNA3 vectors; residues 350–480 of SMRT were cloned into pcDNA3 vectors; FLAG tag with TEV protease cleavage site (cleaved yes); made in house; host or cells: HEK293F cells (co-transfection, pcDNA3)
T4 sequence (O15379 whole entry, the tested form may be a part): as the sequence (O15379 whole entry, the tested form may be a part) above
T4 sequence (Q9Y618 350-480, further chain): as the sequence (Q9Y618 350-480) above
Protocol: as §1, §2, §3

[6] = molecular target: T2, HDAC3:SMRT; assay: Michaelis-Menten enzyme kinetics on Caliper EZ Reader with H4K16ac peptide; assay type: biochemical; design: Full-length HDAC3, and residues 350–480 of SMRT were cloned into pcDNA3 vectors; residues 350–480 of SMRT were cloned into pcDNA3 vectors; FLAG tag with TEV protease cleavage site (cleaved yes); made in house; host or cells: HEK293F cells (co-transfection, pcDNA3); settings: H4 12–18K16ac peptide; in the presence of the inositol phosphate
Excerpt: as §4, §5

[7] = molecular target: T5, HDAC1:MTA1 complex (Homo sapiens, UniProt Q13330+Q13547); assay: Activation of HDAC1:MTA1 deacetylase activity by inositol phosphates (BOC-Lys-AMC assay); assay type: biochemical; settings: for Kd: read-out: Kdapp (apparent Kd from activation titration)
T5 construct: Full-length HDAC1 and residues 162–354 of MTA1 were cloned into pcDNA3 vectors; residues 162–354 of MTA1 were cloned into pcDNA3 vectors; FLAG tag with TEV protease cleavage site (cleaved yes); made in house; host or cells: HEK293F cells (co-transfection, pcDNA3)
T5 sequence (Q13547 whole entry, one chain of several, the tested form may be a part): as the sequence (Q13547 whole entry, one chain of several, the tested form may be a part) above
Protocol: as §2, §3

[8] = molecular target: HDAC1:MTA1 complex (UniProt Q13547)
Sequence of HDAC1:MTA1 complex (UniProt Q13547) (Q13547 whole entry, the tested form may be a part, one chain of several): as the sequence (Q13547 whole entry, one chain of several, the tested form may be a part) above

[9] = molecular target: T2, HDAC3:SMRT; assay: Fluorescence anisotropy displacement of 2-FAM-Ins(1,3,4,5,6)P5; assay type: binding; design: Full-length HDAC3, and residues 350–480 of SMRT were cloned into pcDNA3 vectors; residues 350–480 of SMRT were cloned into pcDNA3 vectors; FLAG tag with TEV protease cleavage site (cleaved yes); made in house; host or cells: HEK293F cells (co-transfection, pcDNA3); settings: fluorescence anisotropy competition; for IC50: read-out: IC50 displacement of 2-FAM-Ins(1,3,4,5,6)P5
Protocol: The concentration of protein was determined as that which gave 100% bound in the protein titration experiments. The data were analysed and IC50 values calculated using GraphPad Prism (version 6.0).

[10] = molecular target: T6, HDAC1 (UniProt Q13547 1-482); assay: crystal structure; HDAC1:MTA1 (co-expressed and co-purified, 5 mg/ml) co-crystallised with H4K16Hx at a 1:2 molar ratio; sitting drop, 20 °C, 0.1 M HEPES pH 7.5, 2 M ammonium sulfate, 5% PEG400; crystals frozen with 225 mM InsP6; 3.3 Å; settings: both partners purified
T6 construct: Histone deacetylase 1 (HDAC1), full length, cloned into pcDNA3; Only handled as the co-expressed, co-purified complex with MTA1 162-354; also called histone deacetylase 1; source: HEK293F, co-transfected with the MTA1 construct, purified as the complex (FLAG resin, TEV elution, gel filtration)
T6 sequence (Q13547 whole entry): as the sequence (Q13547 whole entry, one chain of several, the tested form may be a part) above

Molecule: O=C(CP(=O)(O)O)O[C@@H]1[C@@H](OP(=O)(O)O)[C@H](OP(=O)(O)O)[C@H](O)[C@H](OP(=O)(O)O)[C@H]1OP(=O)(O)O [2-OH-5-PA-InsP4]
HDAC activity as percentage of maximal Ins(1,4,5,6)P4 activity [1]: completely inert

Molecule: CC(=O)N[C@@H](CCCCN)C(=O)NCC(=O)NCC(=O)N[C@@H](C)C(=O)N[C@@H](CCCCCC(=O)NO)C(=O)N[C@@H](CCCNC(=N)N)C(=O)N[C@@H](Cc1c[nH]cn1)C(N)=O [H4K16Hx] (Ac-KGGA[Asu](NHOH)RH-NH2)
enhancement of the binding of 2-FAM-Ins(1,3,4,5,6)P5 to the allosteric site by inhibitor [2]: more modest effect
IC50 [3]: 0.336 µM

Molecule: O=P(O)(O)OC1[C@@H](OP(=O)(O)O)[C@H](OP(=O)(O)O)C(O)[C@H](OP(=O)(O)O)[C@H]1OP(=O)(O)O (some centres unmarked)
Kd [1]: 5 µM
HDAC3 activation relative to maximal Ins(1,4,5,6)P4-stimulated activity [1]: same degree as Ins(1,4,5,6)P4
increase in apparent affinity compared with Ins(1,4,5,6)P4 ([1]; ratio of apparent Kd values): twofold
activation of HDAC1:MTA1 complex [7]: can be activated
Kd [7]: 2.6 µM

Molecule: O=P(O)(O)O[C@@H]1[C@@H](OP(=O)(O)OP(=O)(O)O)[C@H](OP(=O)(O)O)[C@@H](OP(=O)(O)O)[C@@H](O)[C@H]1OP(=O)(O)O [5-PP-InsP4]
HDAC activity as percentage of maximal Ins(1,4,5,6)P4 activity [1]: ~60%

Molecule: H4K16Hx (histone H4 residues 12-18 with hydroxamic acid functionality at K16) (from UniProt P62805 13-19) (peptide)
inhibition of the deacetylase activity of HDAC1:MTA1 (IC50) [8]: 0.336 µM

Molecule: O=P(O)(O)O[C@@H]1C(O)[C@H](OP(=O)(O)O)[C@@H](OP(=O)(O)O)C(O)[C@H]1OP(=O)(O)O (some centres unmarked) [Ins(1,3,4,6)P4]
HDAC3 activation relative to maximal Ins(1,4,5,6)P4-stimulated activity [1]: unable to activate HDAC3; also recorded: do not activate the complex
IC50 [9]: 1.5 µM

Molecule: Nc1ncnc2c1ncn2[C@@H]1O[C@H](CO)[C@@H](O[C@H]2O[C@H](CO)[C@@H](OP(=O)(O)O)[C@H](OP(=O)(O)O)[C@H]2O)[C@H]1OP(=O)(O)O [adenophostin A]
HDAC activity as percentage of maximal Ins(1,4,5,6)P4 activity [1]: no activity; also recorded: neither activates HDAC3; also recorded: completely inert
IC50 displacement of 2-FAM-Ins(1,3,4,5,6)P5 [9]: nor competes for inositol phosphate binding

Molecule: O=P(O)(O)Oc1ccc(OP(=O)(O)O)c(OP(=O)(O)O)c1OP(=O)(O)O [benzene 1,2,3,4-tetrakisphosphate]
HDAC activity as percentage of maximal Ins(1,4,5,6)P4 activity [1]: fails to substantially activate the complex

Molecule: O=P(O)(O)OC1[C@H](O)[C@H](OP(=O)(O)O)C(OP(=O)(O)O)[C@H](OP(=O)(O)O)[C@H]1O (some centres unmarked) [Ins(1,3,4,5)P4]
Kd [1]: 13 µM
HDAC3 activation relative to maximal Ins(1,4,5,6)P4-stimulated activity [1]: greater than 75%

More lines, main results first:

Kd [1]: 29 µM
HDAC3 activation relative to maximal Ins(1,4,5,6)P4-stimulated activity [1]: 60%
Molecule: O=P(O)(O)O[C@H]1[C@H](OP(=O)(O)O)[C@H](O)[C@H](O)[C@@H](O)[C@@H]1OP(=O)(O)O [Ins(1,5,6)P3]

Kd [1]: 30 µM
Molecule: O=P(O)(O)OC1C(O)C(OP(=O)(O)O)C(OP(=O)(O)O)C(OP(=O)(O)O)C1O (centres unmarked) [Ins(1,3,5,6)P4]

kcat [4]: 0.90 s⁻¹
Kd [5]: 10 µM
kcat [6]: 2.72 s⁻¹
Kd [7]: 4.7 µM
Molecule: O=P(O)(O)O[C@@H]1[C@@H](OP(=O)(O)O)[C@H](OP(=O)(O)O)[C@@H](O)[C@@H](O)[C@H]1OP(=O)(O)O [Ins(1,4,5,6)P4, inositol 1,4,5,6-tetrakisphosphate]

Kd [1]: 41 µM
Molecule: O=P(O)(O)O[C@H]1[C@H](OP(=O)(O)O)[C@@H](OP(=O)(O)O)[C@@H](O)[C@@H](O)[C@@H]1OP(=O)(O)O [Ins(3,4,5,6)P4]

enhancement of the binding of 2-FAM-Ins(1,3,4,5,6)P5 to the allosteric site by inhibitor [2]: threefold enhancement
Molecule: MS-275

Kd [1]: 45 µM
HDAC3 activation relative to maximal Ins(1,4,5,6)P4-stimulated activity [1]: 85%
Molecule: O=P(O)(O)OC1C(O)C(O)C(O)C(OP(=O)(O)O)C1OP(=O)(O)O (centres unmarked) [Ins(4,5,6)P3]

IC50 [9]: 19 µM
Molecule: O=P(O)(O)O[C@@H]1[C@H](O)[C@H](O)[C@@H](OP(=O)(O)O)[C@H](OP(=O)(O)O)[C@H]1O [Ins(1,4,5)P3]
HDAC3 activation relative to maximal Ins(1,4,5,6)P4-stimulated activity [1]: completely unable to activate HDAC3; also recorded: completely inert; also recorded: do not activate the complex

HDAC3 activation relative to maximal Ins(1,4,5,6)P4-stimulated activity [1]: completely inert
Molecule: O=P(O)(O)O[C@H]1[C@H](O)[C@H](O)[C@H](OP(=O)(O)O)[C@@H](OP(=O)(O)O)[C@@H]1O [Ins(1,4,6)P3]

binding result [10]: binds
B1: MTA1 residues 162-354 (domain or fragment, UniProt Q13330 162-354, looked up)
chain: ADKGEIRVGNRYQADITDLLKEGEEDGRDQSRLETQVWEAHNPLTDKQIDQFLVVARSVGTFARALDCSSSVRQPSLHMSAAAASRDITLFHAMDTLHKNIYDISKAISALVPQGGPVLCRDEMEEWSASEANLFEEALEKYGKDFTDIQQDFLPWKSLTSIIEYYYMWKTTDRYVQQKRLKAAEAESKLKQV
notes: MTA1, residues 162-354, cloned into pcDNA3 with a FLAG tag and TEV protease cleavage site; The complex was eluted from the FLAG resin with TEV protease; source: HEK293F, co-transfected with HDAC1, purified as the complex (FLAG resin, TEV elution, gel filtration)
